Measured values as given in patent US20230348459A1, “PYRROLIDINE COMPOUND AND USE THEREOF” (SIMCERE PHARMACEUTICAL CO., LTD., priority 2020, published 2023).
Like-named read-outs stand apart in the source and are kept apart here.

Legend:
MCF-7 subcutaneous tumor = assay: Growth inhibition in MCF-7 subcutaneous tumor model in mice; type: in vivo, NPG mice; details: for TGI: 3 weeks; for Average tumor volume Day 0: Day 0 (grouping); for Effect on body weight of mice: at the doses tried
Procedure: Cell inoculation: 0.1 ml/(containing 1 × 10^7) MCF-7 cell suspension (volume ratio of D-PBS : Matrigel = 1 : 1) was inoculated subcutaneously on the right back of each mouse, and the mice were inoculated subcutaneously with 17β-estradiol tablets four days before the cell inoculation.
Administration: The compound # Example 1 was administered at a dose of 1, 3, or 10 mg/kg, orally (PO), once daily (QD) for 3 weeks. The compound # Example 2 was administered at a dose of 10 mg/kg, orally (PO), once daily (QD) for 3 weeks. 8 mice were in the vehicle group and 6 mice were in the administration group.
The diameter of the tumor was measured with vernier calipers twice weekly. The calculation formula of tumor volume was V = 0.5a × b^2, wherein a and b represented the long and short diameters of the tumor, respectively. The body weights of the mice were weighed twice weekly.
The tumor-inhibiting efficacy of the compound was evaluated using tumor growth inhibition (TGI) (%).

[1] = Blood-brain barrier (BBB) permeability in rats; type: in vivo, SD rats; details: for Kp at 2 h / concentration at 2 h: rat, female SD rats, 100 mg/kg QD, 2 h after administration; for Kp at 2 h: brain/plasma, read-out: B/P ratio
Procedure: Six female SD rats (200-300 g, 6-8 weeks) were randomized into 2 groups, 3 rats/group. Each rat was given the compounds of the present invention, and the vehicle was 0.5% methylcellulose aqueous solution. Animals were fed with water as usual and fasted overnight before the experiment, and feeding was resumed four hours after administration. Plasma and brain tissue were collected from rats of each group 2 h after administration. The whole blood sample collected was placed in a K2EDTA anticoagulation tube and centrifuged for 5 min (12,000 rpm, 4° C.) and then the plasma was taken for later detection. After tissue collection, the tissue was dried with filter paper, and the samples were stored in a -80° C. freezer for later detection.
10 µL of the rat plasma sample was taken and 150 µL of acetonitrile solvent (wherein an internal standard compound was contained) was added to precipitate proteins. After the mixture was vortexed for 5 min, centrifugation (14,000 rpm) was performed for 5 min. The supernatant was diluted 2-fold with water containing 0.1% (v/v) FA and injected into the LC-MS/MS system (AB Sciex Triple Quad 6500+) for the quantitative detection. For the 10x diluted samples, 2 µL of the sample was taken and 18 µL of blank plasma was added. After the mixture was vortexed for 0.5 min, 300 µL of acetonitrile solvent (wherein an internal standard compound was contained) was added to precipitate proteins. The other processing steps were identical to those for the samples not diluted. A calibration standard curve was prepared in SD rat plasma along with plasma quality control samples to determine the plasma concentration.
Brain tissue samples from rat were first homogenized with 4 times the mass volume of PBS homogenate. 20 µL of brain tissue homogenate sample was taken, and 20 µL of blank mouse plasma was added. The mixture was diluted and mixed uniformly, and 600 µL of acetonitrile solvent (wherein an internal standard compound was contained) was added to precipitate proteins. After the mixture was vortexed for 5 min, centrifugation (14,000 rpm) was performed for 5 min. The supernatant was diluted 2-fold with water containing 0.1% (v/v) FA and injected into the LC-MS/MS system (AB Sciex Triple Quad 6500+) for the quantitative detection.

MCF-7 intracranial tumor = assay: Growth inhibition in MCF-7 intracranial tumor model in mice; details: 30 mg/kg PO once daily
Procedure: Animal information: NPG mice (female, 6-8 weeks, body weight: about 17-29 g) were purchased from Beijing Vitalstar Biotechnology Co., Ltd. The mice were fed in SPF environment and each cage position was individually ventilated.
Cell culture: The human breast cancer MCF-7 cell line was cultured in vitro in EMEM (cell culture medium) supplemented with 10% fetal bovine serum, 1% Pen Strep and 10 µg/ml recombinant human insulin in a 37° C., 5% CO2 incubator. Conventional digestion treatment with 0.25% trypsin-EDTA digestion solution was carried out twice weekly for passage. When the cell saturation was 80%-90%, and the number reached the requirement, the cells were collected and counted.
Cell inoculation: 15 µl/(containing 2 × 10^6) MCF-7 cell suspension was inoculated into the brain of mice using a stereotaxic apparatus, a micro-injection pump and a miniature handheld cranial drill, and the mice were subcutaneously inoculated with 17β-estradiol tablets three days before the cell inoculation. On day 8 after cell inoculation, the mice were randomized into groups for administration according to the body weight thereof, and the day of grouping was Day 0.
11 mice were in the vehicle group and 8 mice were in the administration group. Mice in all groups were continuously administered until the mice died, which were euthanized due to poor state or the end of the experiment.
The body weight of the mice was measured twice weekly, and the survival status of the mice was observed.
At the end of the experiment on Day 48, all mice were euthanized.

[2] = brain, read-out: Drug concentration in brain
[3] = plasma, read-out: Drug concentration in plasma

Structure (SMILES) | TGI (MCF-7 subcutaneous tumor; 10 mg/kg PO QD) [%] | Average tumor volume Day 0 (MCF-7 subcutaneous tumor; 10 mg/kg PO QD) [mm^3] | Average tumor volume Day 21 (MCF-7 subcutaneous tumor; 10 mg/kg PO QD) [mm^3] | Effect on body weight of mice (MCF-7 subcutaneous tumor) | Kp at 2 h [1] | concentration at 2 h [1, 2] [ng/g] | concentration at 2 h [1, 3] [ng/mL] | TGI (MCF-7 subcutaneous tumor; 1 mg/kg PO QD) [%] | Average tumor volume Day 0 (MCF-7 subcutaneous tumor; 1 mg/kg PO QD) [mm^3] | Average tumor volume Day 21 (MCF-7 subcutaneous tumor; 1 mg/kg PO QD) [mm^3] | TGI (MCF-7 subcutaneous tumor; 3 mg/kg PO QD) [%] | Average tumor volume Day 0 (MCF-7 subcutaneous tumor; 3 mg/kg PO QD) [mm^3] | Average tumor volume Day 21 (MCF-7 subcutaneous tumor; 3 mg/kg PO QD) [mm^3] | Tumor shrinkage (in words) (MCF-7 subcutaneous tumor; doses of 3 mg/kg and 10 mg/kg) | Effect on tumor growth (in words) (MCF-7 subcutaneous tumor; orally once daily at 1 mg/kg, 3 mg/kg or 10 mg/kg, P < 0.01) | Blood-brain barrier permeability (in words) ([1]; rats) | Deaths in group (MCF-7 intracranial tumor; until Day 48) | Survival period vs solvent control or Fulvestrant (MCF-7 intracranial tumor; P < 0.01)
C[C@@H]1Cc2c([nH]c3ccccc23)C(c2c(F)cc(N[C@H]3CCN(CCCF)C3)cc2F)N1CC(F)(F)CO (stereo in doubt) [Example 7, 3-((1S,3R)-1-(2,6-difluoro-4-(((S)-1-(3-fluoropropyl)pyrrolidin-3-yl)amino)phenyl)-3-methyl-3,4-dihydro-1H-pyridino [3,4-b]indole-2(9H)-yl)-2,2-difluoropropane-1-ol] | 140.09 | 170 | 80 | do not significantly affect the body weight | 0.28 | 703 | 2540 | – | – | – | – | – | – | – | – | – | – | –
C[C@@H]1Cc2c([nH]c3ccccc23)[C@@H](c2ccc(N[C@H]3CCN(CCCF)C3)cn2)N1CC(F)(F)F [Example 3, N-((S)-1-(3-fluoropropyl)pyrrolidin-3-yl)-6-((1S,3R)-3-methyl-2-(2,2,2-trifluoroethyl)-2,3,4,9-tetrahydro-1H-pyridino[3,4-b]indol-1-yl)pyridine-3-amine] | 138.17 | 177 | 91 | do not significantly affect the body weight | 4.2 | 10600 | 2620 | 89.08 | 183 | 207 | 114.71 | 169 | 136 | shows an effect of shrinking tumor | significant inhibitory effects | excellent blood-brain barrier permeability | No death case occurred | significantly prolonged
